Data published in US9169260B2 (MERCK SHARP & DOHME CORP., priority 2011, dated 2015).

Biological target: GST tagged IRAK-4 (Homo sapiens (Human), UniProt Q9NWZ3)
Assay: IRAK-4 Kinase Assay (IMAP fluorescence polarization)
Assay type: biochemical
Conditions: 100 μM ATP, 30 minutes at 25° C.
Procedure, shortened: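 Activity was read by IMAP fluorescence polarization, where phosphopeptide binding to M(III) nanoparticles raises FP. The 30-minute, 25° C reaction used 100 μM ATP, 100 nM RP7030 substrate and 0.5 nM GST-IRAK-4 in pH 7.2 Tris buffer with MgCl2, DTT and Tween 20.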

Sequence of GST tagged IRAK-4 (Q9NWZ3 whole entry): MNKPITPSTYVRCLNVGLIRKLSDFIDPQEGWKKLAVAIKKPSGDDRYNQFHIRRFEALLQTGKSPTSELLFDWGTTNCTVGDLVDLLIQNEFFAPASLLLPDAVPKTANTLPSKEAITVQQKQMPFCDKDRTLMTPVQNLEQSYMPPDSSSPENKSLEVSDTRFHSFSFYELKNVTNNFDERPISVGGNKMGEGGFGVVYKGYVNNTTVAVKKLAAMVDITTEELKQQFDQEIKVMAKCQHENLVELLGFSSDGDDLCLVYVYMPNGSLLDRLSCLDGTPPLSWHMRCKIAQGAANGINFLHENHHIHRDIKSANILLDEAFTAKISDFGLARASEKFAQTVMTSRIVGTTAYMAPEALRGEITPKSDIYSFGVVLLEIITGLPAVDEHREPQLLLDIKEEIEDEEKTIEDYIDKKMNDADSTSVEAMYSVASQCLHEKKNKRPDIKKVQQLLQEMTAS

Compound | IC50 | IC50 (μM)
Cc1ccc(-n2nc(C3CCN(C4CCCOC4)CC3)cc2NC(=O)c2cnn3cccnc23)nc1 (stereo not drawn) [Example 264, N-{1-(5-methylpyridin-2-yl)-3-[1-(tetrahydro-2H-pyran-3-yl)piperidin-4-yl]-1H-pyrazol-5-yl}pyrazolo[1,5-a]pyrimidine-3-carboxamide] | < 0.1 µM | 
CNS(=O)(=O)c1ccc(-c2cc(NC(=O)c3cnn4cccnc34)n(-c3ccc(C4CC4)cn3)n2)cc1 [Example 151, N-(1-(5-cyclopropylpyridin-2-yl)-3-(4-(N-methylsulfamoyl)phenyl)-1H-pyrazol-5-yl)pyrazolo[1,5-a]pyrimidine-3-carboxamide] | < 0.1 µM | 
O=C(Nc1cc(C2CCNCC2)nn1-c1ccc(Cl)cc1)c1cnn2cccnc12 [Example 9, N-(1-(4-chlorophenyl)-3-(piperidin-4-yl)-1H-pyrazol-5-yl)pyrazolo[1,5-a]pyrimidine-3-carboxamide] |  | < 1 µM
Cc1ccc(-n2nc(N3CCN(C4CCOCC4)CC3)cc2NC(=O)c2cnn3cccnc23)nc1 [Example 321, N-{1-(5-methylpyridin-2-yl)-3-[4-(tetrahydro-2H-pyran-4-yl)piperazin-1-yl]-1H-pyrazol-5-yl}pyrazolo[1,5-a]pyrimidine-3-carboxamide] | < 0.1 µM | 
O=C(Nc1cc(C2CCN(C3CCC3)CC2)nn1-c1ccc(Cl)cc1F)c1cnn2cccnc12 [Example 51, N-(1-(4-chloro-2-fluorophenyl)-3-(1-cyclobutylpiperidin-4-yl)-1H-pyrazol-5-yl)pyrazolo[1,5-a]pyrimidine-3-carboxamide] | < 0.1 µM | 
Cc1ccc(-n2nc(N3CCOCC3)cc2NC(=O)c2cnn3cccnc23)nc1 [Example 202, N-(1-(5-methylpyridin-2-yl)-3-morpholino-1H-pyrazol-5-yl)pyrazolo[1,5-a]pyrimidine-3-carboxamide] | < 0.1 µM | 
Cc1cc(F)ccc1-n1nc(C2CCN(C(C)C)CC2)cc1NC(=O)c1cnn2cccnc12 [Example 69, N-(1-(4-fluoro-2-methylphenyl)-3-(1-isopropylpiperidin-4-yl)-1H-pyrazol-5-yl)pyrazolo[1,5-a]pyrimidine-3-carboxamide] |  | < 1 µM
O=C(Nc1cc(C2CCNCC2)nn1-c1cc(F)cc(F)c1)c1cnn2cccnc12 [Example 67, N-(1-(3,5-difluorophenyl)-3-(piperidin-4-yl)-1H-pyrazol-5-yl)pyrazolo[1,5-a]pyrimidine-3-carboxamide] |  | > 1 µM
CN1CCC(c2cc(NC(=O)c3cnn4cccnc34)n(-c3ccc(Cl)cc3F)n2)CC1 [Example 50, N-(1-(4-chloro-2-fluorophenyl)-3-(1-methylpiperidin-4-yl)-1H-pyrazol-5-yl)pyrazolo[1,5-a]pyrimidine-3-carboxamide] |  | < 1 µM
[2H]C([2H])([2H])c1ccc(-n2nc(N3CCN(S(C)(=O)=O)CC3)cc2NC(=O)c2cnn3cccnc23)nc1 [Example 200, N-(1-(5-trideuteromethylpyridin-2-yl)-3-(4-(methylsulfonyl)piperazin-1-yl)-1H-pyrazol-5-yl)pyrazolo[1,5-a]pyrimidine-3-carboxamide] | < 0.1 µM | 
CCN(CC)S(=O)(=O)c1ccc(-c2cc(NC(=O)c3cnn4cccnc34)n(-c3ccc(C)cc3)n2)cc1 [Example 343, N-{3-[4-(diethylsulfamoyl)phenyl]-1-(4-methylphenyl)-1H-pyrazol-5-yl}pyrazolo[1,5-a]pyrimidine-3-carboxamide] | < 0.1 µM | 
Cc1ccc(-n2nc(C3(C)CCN(S(C)(=O)=O)CC3)cc2NC(=O)c2cnn3cccnc23)cc1 [Example 92, N-(3-(4-methyl-1-(methylsulfonyl)piperidin-4-yl)-1-(p-tolyl)-1H-pyrazol-5-yl)pyrazolo[1,5-a]pyrimidine-3-carboxamide] |  | > 1 µM
O=C(Nc1cc(C2CCNCC2)nn1-c1ccc(F)cc1)c1cnn2cccnc12 [Example 10, N-(1-(4-fluorophenyl)-3-(piperidin-4-yl)-1H-pyrazol-5-yl)pyrazolo[1,5-a]pyrimidine-3-carboxamide] |  | < 1 µM
Cc1ccc(-n2nc(C3CCN(CC4CC4)CC3)cc2NC(=O)c2cnn3cccnc23)cc1 [Example 221, N-{3-[1-(cyclopropylmethyl)piperidin-4-yl]-1-(4-methylphenyl)-1H-pyrazol-5-yl}pyrazolo[1,5-a]pyrimidine-3-carboxamide] | < 0.1 µM | 
Cc1ccc(-n2nc(C3CN(Cc4cccnc4)C3)cc2NC(=O)c2cnn3cccnc23)cc1 [Example 314, N-{1-(4-methylphenyl)-3-[1-(pyridin-3-ylmethyl)azetidin-3-yl]-1H-pyrazol-5-yl}pyrazolo[1,5-a]pyrimidine-3-carboxamide] | < 0.1 µM | 
Cc1ccc(-n2nc(-c3ccnc(CO)c3)cc2NC(=O)c2cnn3cccnc23)cc1 [Example 329, N-{3-[2-(hydroxymethyl)pyridin-4-yl]-1-(4-methylphenyl)-1H-pyrazol-5-yl}pyrazolo[1,5-a]pyrimidine-3-carboxamide] |  | < 1 µM
Cc1ccc(-n2nc(-c3ccc(S(=O)(=O)N4CCN(C)CC4)cc3)cc2NC(=O)c2cnn3cccnc23)cc1 [Example 342, N-[1-(4-methylphenyl)-3-{4-[(4-methylpiperazin-1-yl)sulfonyl]phenyl}-1H-pyrazol-5-yl]pyrazolo[1,5-a]pyrimidine-3-carboxamide] | < 0.1 µM | 
Cc1ccc(-n2nc(C3CCN(S(=O)(=O)c4ccc(F)c(F)c4)CC3)cc2NC(=O)c2cnn3cccnc23)cc1 [Example 365] |  | < 1 µM
Cc1ccc(-n2nc(-c3cnn(C)c3)cc2NC(=O)c2cnn3cccnc23)cc1 [Example 326, N-[1′-methyl-1-(4-methylphenyl)-1H,1′H-3,4′-bipyrazol-5-]pyrazolo[1,5-a]pyrimidine-3-carboxamide] |  | < 1 µM
O=C(Nc1cc(C2CCNCC2)nn1-c1nccs1)c1cnn2cccnc12 [Example 189, N-(3-(piperidin-4-yl)-1-(thiazol-2-yl)-1H-pyrazol-5-yl)pyrazolo[1,5-a]pyrimidine-3-carboxamide] | < 0.1 µM | 
Cc1ccc(-n2nc(N3CCN(C4CCCC4)CC3)cc2NC(=O)c2cnn3cccnc23)nc1 [Example 323, N-[3-(4-cyclopentylpiperazin-1-yl)-1-(5-methylpyridin-2-yl)-1H-pyrazol-5-yl]pyrazolo[1,5-a]pyrimidine-3-carboxamide] | < 0.1 µM | 

Other lines, results leading:

IC50 | IC50 (μM) | Compound
< 0.1 µM |  | Cc1ccc(-n2nc(C3CCN(CC(C)C)CC3)cc2NC(=O)c2cnn3cccnc23)cc1 [Example 219, N-{1-(4-methylphenyl)-3-[1-(2-methylpropyl)piperidin-4-yl]-1H-pyrazol-5-yl}pyrazolo[1,5-a]pyrimidine-3-carboxamide]
 | < 1 µM | Cc1ccc(-n2nc(C3CCN(C4CN(S(=O)(=O)C5CC5)C4)CC3)cc2NC(=O)c2cnn3cccnc23)cc1 [Example 245, N-[3-{1-[1-(cyclopropylsulfonyl)azetidin-3-yl]piperidin-4-yl]-1-(4-methylphenyl)-1H-pyrazol-5-yl}pyrazolo[1,5-a]pyrimidine-3-carboxamide]
< 0.1 µM |  | Cc1ccc(-n2nc(C3CCN(S(=O)(=O)Cc4ccccn4)CC3)cc2NC(=O)c2cnn3cccnc23)cc1 [Example 397, N-[1-(4-methylphenyl)-3-{1-[(pyridin-2-ylmethyl)sulfonyl]piperidin-4-yl}-1H-pyrazol-5-yl]pyrazolo[1,5-a]pyrimidine-3-carboxamide]
< 0.1 µM |  | CCCN1CCC(c2cc(NC(=O)c3cnn4cccnc34)n(-c3ccc(C)cc3)n2)CC1 [Example 220, N-[1-(4-methylphenyl)-3-(1-propylpiperidin-4-yl)-1H-pyrazol-5-yl]pyrazolo[1,5-a]pyrimidine-3-carboxamide]
 | < 1 µM | Cc1cccc(-n2nc(C3CCN(S(C)(=O)=O)CC3)cc2NC(=O)c2cnn3cccnc23)c1 [Example 17, N-(3-(1-(methylsulfonyl)piperidin-4-yl)-1-(m-tolyl)-1H-pyrazol-5-yl)pyrazolo[1,5-a]pyrimidine-3-carboxamide]
 | < 1 µM | Cc1ccc(-n2nc(C3CCN(S(=O)(=O)C4CCCC4)CC3)cc2NC(=O)c2cnn3cccnc23)cc1 [Example 25, N-(3-(1-(cyclopentylsulfonyl)piperidin-4-yl)-1-(p-tolyl)-1H-pyrazol-5-yl)pyrazolo[1,5-a]pyrimidine-3-carboxamide]
 | < 1 µM | Cc1ccc(-n2nc(C3CCN(S(=O)(=O)c4cn(C)cn4)CC3)cc2NC(=O)c2cnn3cccnc23)cc1 [Example 376, N-[3-{1-[(1-methyl-1H-imidazol-4-yl)sulfonyl]piperidin-4-yl}-1-(4-methylphenyl)-1H-pyrazol-5-yl]pyrazolo[1,5-a]pyrimidine-3-carboxamide]
 | < 1 µM | Cc1ccc(-n2nc(C3CN(S(=O)(=O)C4CCCC4)C3)cc2NC(=O)c2cnn3cccnc23)cc1 [Example 85, N-(3-(1-(cyclopentylsulfonyl)azetidin-3-yl)-1-(p-tolyl)-1H-pyrazol-5-yl)pyrazolo[1,5-a]pyrimidine-3-carboxamide]
 | > 1 µM | Cc1ccc(-n2nc(C3CCN(S(=O)(=O)c4ccc(Cl)s4)CC3)cc2NC(=O)c2cnn3cccnc23)cc1 [Example 393, N-[3-{1-[(5-chlorothiophen-2-yl)sulfonyl]piperidin-4-yl}-1-(4-methylphenyl)-1H-pyrazol-5-yl]pyrazolo[1,5-a]pyrimidine-3-carboxamide]
 | < 1 µM | Cc1ccc(-n2nc(C3CCN(S(=O)(=O)c4cccc(C#N)c4)CC3)cc2NC(=O)c2cnn3cccnc23)cc1 [Example 374, N-[3-{1-[(3-cyanophenyl)sulfonyl]piperidin-4-yl}-1-(4-methylphenyl)-1H-pyrazol-5-yl]pyrazolo[1,5-a]pyrimidine-3-carboxamide]
 | < 1 µM | Cc1ccc(-n2nc(C3CCN(S(=O)(=O)c4ccc(Cl)nc4)CC3)cc2NC(=O)c2cnn3cccnc23)cc1 [Example 382]
 | > 1 µM | Cc1ccc(-n2nc(C3CCN(S(=O)(=O)c4c(Cl)cccc4Cl)CC3)cc2NC(=O)c2cnn3cccnc23)cc1 [Example 390, N-[3-{1-[(2,6-dichlorophenyl)sulfonyl]piperidin-4-yl}-1-(4-methylphenyl)-1H-pyrazol-5-yl]pyrazolo[1,5-a]pyrimidine-3-carboxamide]
